Usually IC50 stands for the concentration that gives 50% inhibition.

The values that follow come from article PMC5298231, “The Malaria Parasite's Lactate Transporter PfFNT Is the Target of Antiplasmodial Compounds Identified in Whole Cell Phenotypic Screens” (PLoS Pathogens, 2017).

The test system of one experiment is Dd2 parental parasites. Put plainly: L-[14C]lactate uptake by isolated Dd2 parental parasites. Conditions: read-out: IC50, inhibition of L-[14C]lactate uptake; Dd2 (parental) parasites; pH 6.1, 4°C, 20 s; mean ± SEM.
The subject of a further experiment is non-injected oocytes. It counts as cell-based, Xenopus laevis. Conditions: full range of inhibitor concentrations.

For the molecule `COc1ccc2c(c1)OC(O)(C(F)(F)C(F)(F)F)CC2=O` (centres unmarked) [MMV007839], in the experiment with Dd2 parental parasites, the IC50 came out at 158 ± 42 nM. The “Effect on L-[14C]lactate transport into control (non-injected) oocytes” value with non-injected oocytes is on record as “no changes”.
